Results taken from patent publication EP3046573B1, “AMYLIN ANALOGUES” (Zealand Pharma A/S, priority 2013, dated 2015).
Numbered stars: 1 amine (or outer) side, 2 acyl side, 3 side chain; on linkers, the order of the positions; unused ones are H or OH. Bridge positions count the residues as written; N and C are the ends. Square brackets hold non-standard residues; d marks the D form. Peptide text beside a SMILES is read from it. * marks the point of attachment. C20 diacid = O=C(O)CCCCCCCCCCCCCCCCCCC(=O)*; γGlu = O=C(O)[C@H](CCC(=O)[*:2])N[*:1]; NMeI = CC[C@H](C)[C@H](NC)C(=O)O; Sar = CNCC(=O)O

How the values were obtained:
[1] = Solubility assessment (turbidity absorbance at 325 nm); type: physicochemical; settings: stock 2 mg/ml diluted 1:1, ambient temperature (typically 25°C), n=1; for Solubility, Acetate buffer pH 4: 100 mM acetate buffer pH 4.0; for Solubility, Acetate buffer pH 5: 100 mM acetate buffer pH 5.0; for Solubility, Histidine buffer pH 6: 100 mM histidine buffer pH 6.0; for Solubility, Histidine buffer pH 7: 100 mM histidine buffer pH 7.0; for Solubility, Phosphate buffer pH 6: 100 mM phosphate buffer pH 6.0; for Solubility, Phosphate buffer pH 7: 100 mM phosphate buffer pH 7.0; for Solubility, Phosphate buffer pH 7.5: 100 mM phosphate buffer pH7.5
Outline: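 Peptide stock (2 mg/ml) in water acidified to pH 2.5 with HCl was diluted 1:1 into 100 mM acetate (pH 4.0, 5.0), histidine (pH 6.0, 7.0) or phosphate (pH 6.0, 7.0, 7.5) buffer. A280 and A325 were read at about 25°C, n=1. A325 ≤ 0.02 meant solubility ≥ 1 mg/ml.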

[2] = target: T1, human calcitonin receptor (hCTR2) (Homo sapiens, UniProt P30988); assay: hCTR2 assay: induction of cAMP (AlphaScreen cAMP Assay kit) in COS7 cells expressing hCTR2; type: cell-based; settings: cAMP induction in COS7 cells expressing hCTR2; average of a minimum of 3 determinations; read-out: hCTR2 EC50
T1 construct: expressed in transfected cells
T1 sequence (P30988 25-474): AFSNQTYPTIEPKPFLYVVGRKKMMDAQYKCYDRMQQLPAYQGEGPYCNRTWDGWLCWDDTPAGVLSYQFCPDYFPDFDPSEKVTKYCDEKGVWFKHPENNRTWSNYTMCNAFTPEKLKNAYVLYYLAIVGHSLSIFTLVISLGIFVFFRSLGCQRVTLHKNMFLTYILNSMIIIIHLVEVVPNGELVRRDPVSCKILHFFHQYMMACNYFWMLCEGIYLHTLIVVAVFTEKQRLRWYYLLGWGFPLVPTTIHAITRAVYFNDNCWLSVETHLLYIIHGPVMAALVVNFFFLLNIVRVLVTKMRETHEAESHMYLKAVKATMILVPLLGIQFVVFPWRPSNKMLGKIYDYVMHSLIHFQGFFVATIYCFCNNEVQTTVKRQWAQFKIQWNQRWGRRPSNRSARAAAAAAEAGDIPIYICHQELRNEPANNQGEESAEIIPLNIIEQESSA
Outline: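 Functional agonism is measured as cAMP accumulation in a COS7 line stably transfected with hCTR2, lacking endogenous RAMPs. Peptides act for 15 min at 37° C with IBMX present, and curves are fitted with a 4-parameter logistic model.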

[3] = target: T2, human amylin receptor 3 (hAMYR3) consisting of hCTR2 co-expressed with human Receptor Activity Modifying Protein 3 (hRAMP3) (Homo sapiens, UniProt O60896+P30988); assay: hAMYR3 assay: induction of cAMP (AlphaScreen cAMP Assay kit) in COS7 cells expressing hAMYR3; type: cell-based
T2 construct: expressed in transfected cells
T2 sequence (P30988 25-474): T1 sequence (P30988 25-474)
T2 sequence (O60896 24-148 partner): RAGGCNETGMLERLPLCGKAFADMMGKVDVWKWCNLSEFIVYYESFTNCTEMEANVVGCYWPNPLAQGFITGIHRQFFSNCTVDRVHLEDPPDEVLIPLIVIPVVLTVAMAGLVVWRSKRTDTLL
Outline: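 Stable COS7 clone co-expressing hCTR2 and hRAMP3, stimulated 15 min at 37° C with increasing peptide in Tyrode buffer pH 7.4 with 100 µM IBMX and 0.1% casein. cAMP measured by AlphaScreen after lysis; EC50 and % efficacy versus pramlintide from 4PL fit.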

CC[C@H](C)[C@@H](C(=O)N[C@@H](CC(C)C)C(=O)N[C@@H](CO)C(=O)N[C@@H](CO)C(=O)N[C@H](C(=O)N[C@@H](CCC(=O)O)C(=O)N[C@H](C(=O)NCC(=O)N[C@@H](CO)C(=O)N[C@@H](CCC(=O)O)C(=O)N[C@H](C(=O)N1CCC[C@H]1C(N)=O)[C@@H](C)O)C(C)C)[C@@H](C)O)N(C)C(=O)[C@H](C)NC(=O)CN(C)C(=O)[C@H](Cc1ccccc1)NC(=O)[C@H](CO)NC(=O)[C@H](CO)NC(=O)[C@H](CO)NC(=O)[C@H](CO)NC(=O)[C@H](CCCNC(=N)N)NC(=O)[C@H](Cc1c[nH]cn1)NC(=O)[C@H](CC(C)C)NC(=O)[C@H](Cc1ccccc1)NC(=O)[C@H](CCC(=O)O)NC(=O)[C@H](C)NC(=O)[C@H](CC(C)C)NC(=O)[C@H](CCCNC(=N)N)NC(=O)[C@H](CCC(N)=O)NC(=O)[C@@H](NC(=O)[C@H](C)NC(=O)[C@@H]1CSSC[C@H](NC(=O)[C@H](CCCNC(=N)N)NC(=O)CC[C@H](NC(=O)CCCCCCCCCCCCCCCCCCC(=O)O)C(=O)O)C(=O)N2CCC[C@H]2C(=O)N[C@@H]([C@@H](C)O)C(=O)N[C@@H](C)C(=O)N[C@@H]([C@@H](C)O)C(=O)N1)[C@@H](C)O [Compound 129, [19CD]-isoGlu-RC()PTATC()ATQRLAEFLHRSSSSF-Gly(Me)-A-Ile(Me)-LSSTEVGSETP-NH2] ({C20 diacid-γGlu}-RCPTATCATQRLAEFLHRSSSSF[Sar]A[NMeI]LSSTEVGSETP-NH2; disulfide 2-7)
Solubility, Acetate buffer pH 4 [1]: SS (SS indicates solubility ≥ 1mg/ml) | Solubility, Acetate buffer pH 5 [1]: SS (SS indicates solubility ≥ 1mg/ml) | Solubility, Histidine buffer pH 6 [1]: SS (SS indicates solubility ≥ 1mg/ml) | Solubility, Histidine buffer pH 7 [1]: SS (SS indicates solubility ≥ 1mg/ml) | Solubility, Phosphate buffer pH 6 [1]: SS (SS indicates solubility ≥ 1mg/ml) | Solubility, Phosphate buffer pH 7 [1]: SS (SS indicates solubility ≥ 1mg/ml) | Solubility, Phosphate buffer pH 7.5 [1]: SS (SS indicates solubility ≥ 1mg/ml) | EC50 [2]: 150 pM | EC50 [3]: 150 pM

CC[C@H](C)[C@@H](C(=O)N[C@@H](CC(C)C)C(=O)N[C@@H](CO)C(=O)N[C@@H](CO)C(=O)N[C@H](C(=O)N[C@@H](CCC(=O)O)C(=O)N[C@H](C(=O)NCC(=O)N[C@@H](CO)C(=O)N[C@@H](CCC(=O)O)C(=O)N[C@H](C(=O)N1CCC[C@H]1C(N)=O)[C@@H](C)O)C(C)C)[C@@H](C)O)N(C)C(=O)[C@H](C)NC(=O)CN(C)C(=O)[C@H](Cc1ccccc1)NC(=O)[C@H](CO)NC(=O)[C@H](CO)NC(=O)[C@H](CO)NC(=O)[C@H](CO)NC(=O)[C@H](CCCNC(=N)N)NC(=O)[C@H](Cc1c[nH]cn1)NC(=O)[C@H](CC(C)C)NC(=O)[C@H](Cc1ccccc1)NC(=O)[C@H](CCC(=O)O)NC(=O)[C@H](C)NC(=O)[C@H](CC(C)C)NC(=O)[C@H](CCCNC(=N)N)NC(=O)[C@H](CCC(N)=O)NC(=O)[C@@H](NC(=O)[C@H](C)NC(=O)[C@@H]1CSSC[C@H](NC(=O)[C@H](CCCNC(=N)N)NC(=O)CC[C@H](NC(=O)CCCCCCCCCCCCCCCCCCC(=O)O)C(=O)O)C(=O)NCC(=O)N[C@@H]([C@@H](C)O)C(=O)N[C@@H](C)C(=O)N[C@@H]([C@@H](C)O)C(=O)N1)[C@@H](C)O [Compound 130, [19CD]-isoGlu-RC()GTATC()ATQRLAEFLHRSSSSF-Gly(Me)-A-Ile(Me)-LSSTEVGSETP-NH2] ({C20 diacid-γGlu}-RCGTATCATQRLAEFLHRSSSSF[Sar]A[NMeI]LSSTEVGSETP-NH2; disulfide 2-7)
Solubility, Acetate buffer pH 4 [1]: SS (SS indicates solubility ≥ 1mg/ml) | Solubility, Acetate buffer pH 5 [1]: SS (SS indicates solubility ≥ 1mg/ml) | Solubility, Histidine buffer pH 6 [1]: SS (SS indicates solubility ≥ 1mg/ml) | Solubility, Histidine buffer pH 7 [1]: SS (SS indicates solubility ≥ 1mg/ml) | Solubility, Phosphate buffer pH 6 [1]: SS (SS indicates solubility ≥ 1mg/ml) | Solubility, Phosphate buffer pH 7 [1]: SS (SS indicates solubility ≥ 1mg/ml) | Solubility, Phosphate buffer pH 7.5 [1]: SS (SS indicates solubility ≥ 1mg/ml) | EC50 [2]: 110 pM | EC50 [3]: 150 pM

CC[C@H](C)[C@@H](C(=O)N[C@@H](CC(C)C)C(=O)N[C@@H](CO)C(=O)N[C@@H](CO)C(=O)N[C@H](C(=O)N[C@@H](CCC(=O)O)C(=O)N[C@H](C(=O)NCC(=O)N[C@@H](CO)C(=O)N[C@@H](CCC(=O)O)C(=O)N[C@H](C(=O)N1CCC[C@H]1C(N)=O)[C@@H](C)O)C(C)C)[C@@H](C)O)N(C)C(=O)[C@H](C)NC(=O)CN(C)C(=O)[C@H](Cc1ccccc1)NC(=O)[C@H](CO)NC(=O)[C@H](CO)NC(=O)[C@H](CO)NC(=O)[C@H](CO)NC(=O)[C@H](CCCNC(=N)N)NC(=O)[C@H](Cc1c[nH]cn1)NC(=O)[C@H](CC(C)C)NC(=O)[C@H](Cc1ccccc1)NC(=O)[C@H](CCC(=O)O)NC(=O)[C@H](C)NC(=O)[C@H](CC(C)C)NC(=O)[C@H](CCCNC(=N)N)NC(=O)CNC(=O)[C@@H](NC(=O)[C@H](C)NC(=O)[C@@H]1CSSC[C@H](NC(=O)[C@H](CCCNC(=N)N)NC(=O)CC[C@H](NC(=O)CCCCCCCCCCCCCCCCCCC(=O)O)C(=O)O)C(=O)NCC(=O)N[C@@H]([C@@H](C)O)C(=O)N[C@@H](C)C(=O)N[C@@H]([C@@H](C)O)C(=O)N1)[C@@H](C)O [Compound 131, [19CD]-isoGlu-RC()GTATC()ATGRLAEFLHRSSSSF-Gly(Me)-A-Ile(Me)-LSSTEVGSETP-NH2] ({C20 diacid-γGlu}-RCGTATCATGRLAEFLHRSSSSF[Sar]A[NMeI]LSSTEVGSETP-NH2; disulfide 2-7)
Solubility, Acetate buffer pH 4 [1]: SS (SS indicates solubility ≥ 1mg/ml) | Solubility, Acetate buffer pH 5 [1]: SS (SS indicates solubility ≥ 1mg/ml) | Solubility, Histidine buffer pH 6 [1]: SS (SS indicates solubility ≥ 1mg/ml) | Solubility, Histidine buffer pH 7 [1]: SS (SS indicates solubility ≥ 1mg/ml) | Solubility, Phosphate buffer pH 6 [1]: SS (SS indicates solubility ≥ 1mg/ml) | Solubility, Phosphate buffer pH 7 [1]: SS (SS indicates solubility ≥ 1mg/ml) | Solubility, Phosphate buffer pH 7.5 [1]: SS (SS indicates solubility ≥ 1mg/ml) | EC50 [2]: 100 pM | EC50 [3]: 180 pM
